Source: patent publication US11795510B2, “Identification of epigenomic reprogramming in cancer and uses thereof” (The Johns Hopkins University, priority 2016, dated 2023)
“Also recorded” adds a separate entry of the source.

Legend:
Assay type in all cases: cell-based, human
[1] = test system: global chromatin modifications (H3K9Me2/3, acetylation) in distant metastatic subclones (A38Lg); assay: Western blots of histone modifications, distant metastatic subclones
Protocol: Histones were acid extracted as described and western blots performed on 3.5 ug histones, which were checked by Ponceau stains prior to western blot to ensure equal loading. Densitometry was performed with ImageJ software. RNA was extracted with Trizol reagent (Life Technologies) and isopropanol precipitated. Genomic DNA was purified with MasterPure DNA extraction reagents (Epicenter). Immunohistochemistry, H&E staining, and immunofluorescence on formalin-fixed, paraffin-embedded (FFPE) tissue microarray sections (TMAs) were performed according to standard procedures.
(§1) RNAi experiments were performed with siRNA transfections (Oligofectamine, Life Technologies) using negative control siRNA (Sigma, SIC001) and pre-designed siRNA oligonucleotides against indicated genes in parallel (Sigma, PGD: SASI_Hs02 00334150, CDH2: SASI_Hs01_00153995, TOP2B: SASI_Hs02_00311874). siRNAs against mutant KRAS^G12V (CUACGCCAACAGCUCCAAC) (SEQ ID NO:1) were custom designed. Cells were incubated with siRNAs for 4 days after transfection and harvested. For drug treatments in 2-D, cells were grown to 70-80% confluency and treated for 3 days with 250 uM 6AN or DMSO negative control.

[2] = test system: glucose incorporation into lactate and nucleotides (PPP); assay: 13C-1,2 glucose tracing by LC-HRMS; conditions: 10 mM 13C-1,2 glucose, 36 hours
Protocol: Tissue samples and cell lines were previously collected from PDAC patients by rapid autopsy, sequenced-validated, and monitored for mycoplasma as previously described. Low passage (2-17) rapid autopsy cell lines were cultured at 37° C. in DMEM with 10% fetal bovine serum (FBS, Gibco). For MTT assays, 15,000 cells/well were plated into 96 well plates in triplicate, treated 12 hours later, and assayed after 24 hr (glucose responses) or 6 days (chemotherapy) with CellTiter96 (Promega). For glucose response assays, nutrient-deplete DMEM (no glucose, glutamine, pyruvate, or serum) was used with addition of glucose as indicated. […] Cells were then washed with PBS, trypsinized, and viable cells counted with a hemocytometer. Glucose uptake and lactate secretion were measured with a YSI 7100 Bioanalyzer as described in the supplementary methods. […]
LC-HRMS Metabolite Profiling. LC-HRMS samples were prepared and analyzed as described in Liu et al. (Development and quantitative evaluation of a high-resolution metabolomics technology. Anal Chem 86, 2175-84 (2014)). […] Additional replicates were also included and counted at the end of the experiment for normalization. […] Pellets were reconstituted into a volume normalized to protein content (15 uL of 1:1 acetonitrile:methanol and 15 uL of water was used per 1 mg protein) and analyzed by LC-QE-MS. […]

[3] = test system: distant metastatic and primary tumor precursor subclones; assay: 3-D matrigel tumor forming assay, distant metastatic subclones
Protocol: as §1
3-D matrigel assays were adapted from Cheung et al. (Control of alveolar differentiation by the lineage transcription factors GATA6 and HOPX inhibits lung adenocarcinoma metastasis. Cancer Cell 23, 725-38 (2013)). […] Well-formed tumors were then counted and representative photographs taken with an EVOS instrument. 3-D suspension tumorsphere assays were performed with 20,000 starting cells/well in ultra-low attachment 6 well plates as described, and tumors counted/photographed after at least 7 days of tumor growth.

[4] = test system: local-regional PDAC samples; assay: 3-D suspension tumorsphere assay, local-regional PDACs
Protocol: 3-D matrigel assays were adapted from Cheung et al. (Control of alveolar differentiation by the lineage transcription factors GATA6 and HOPX inhibits lung adenocarcinoma metastasis. Cancer Cell 23, 725-38 (2013)). Briefly, 2-D cultures were trypsinized into single cells, 4,000cells/mL were suspended and thoroughly mixed in ice-cold DMEM containing 5% matrigel (BD systems) and 2% FBS (+/−DMSO/6AN as needed), 500 ul plated in quadruplicate into 24 well ultra-low attachment plates, and incubated for at least 7 days to allow tumor growth. Well-formed tumors were then counted and representative photographs taken with an EVOS instrument. 3-D suspension tumorsphere assays were performed with 20,000 starting cells/well in ultra-low attachment 6 well plates as described, and tumors counted/photographed after at least 7 days of tumor growth.

[5] = test system: H3K9Me2 and H3K27Ac across CDH2 and TOP2B gene loci; assay: ChIP-qPCR across CDH2 and TOP2B loci
Protocol: Tests for statistical significance (two-tailed students t-test) were performed on data collected from technical replicate (performed in parallel at the same time) or biological replicate (performed at different times) experiments as indicated in the figure legends using excel software for western blot densitometry, MTT assays, and tumor measurements. Whole genome bisulfite sequencing and RNA-seq were performed with HiSeq instruments (Illumina) as described in Hansen et al. (Increased methylation variation in epigenetic domains across cancer types. Nat Genet 43, 768-75 (2011)). ChIP assays were performed as previously described for fixed cells with sonication. For ChIP-qPCR, equal amounts of paired input/IP DNA were amplified by real-time PCR (Roche LightCycler96) and fold enrichments calculated. Primer sequences are listed in Supplementary Table 11. […] IP sequencing reads were normalized to their corresponding inputs. Sequencing procedures, bioinformatics methods including domain calls, and statistical analyses are described in detail within the supplementary methods section.

NC(=O)c1ccc(N)nc1 [6AN, 6-aminonicotinamide]
persistence of chromatin changes upon removal of 6AN from the media ([1]; 3d treatment followed by removal for an additional 3d): persisted | H3K27Me3 or H4K20Me3, western blot densitometry ([1]; across distant metastatic subclones): minimal or non-recurrent effects | reprogrammed chromatin modifications (H3K9Me2, acetylation), western blot densitometry ([1]; across distant metastatic subclones, 250 uM, 3 days): quantitatively reversed; also recorded: selectively reversed | acetylation (western blot) ([1]; distant metastatic subclones): decreased | global H3K9Me2 (western blot) ([1]; distant metastatic subclones): generally increased | reprogrammed chromatin state (global H3K9Me2/3 and acetylation, western blots) ([1]; paired lung metastasis A38Lg): reversed the reprogrammed chromatin state | incorporation of labeled glucose into lactate and nucleotides (metabolites downstream of the PPP) [2]: reversed the previously detected high incorporation; also recorded: reduced incorporation | tumor formation in 3D matrigel assays [3]: selectively and strongly blocked tumor formation; also recorded: ablated tumor formation | tumor formation in 3-D suspension tumorsphere assays [4]: minimal effects; also recorded: did not interfere | H3K9Me2 across CDH2/TOP2B loci (ChIP-qPCR) ([5]; matched lung metastasis A38Lg): enrichment of H3K9Me2 across both loci; also recorded: induced spreading of H3K9Me2 across the locus | H3K27Ac over the CDH2 genic region (ChIP-qPCR) ([5]; matched lung metastasis A38Lg): concordant reductions; also recorded: corresponding loss of H3K27Ac | H3K9Me2 and H3K27Ac enrichments across CDH2/TOP2B loci (ChIP-qPCR), control vs 6AN ([5]; peritoneal subclone A38Per): nearly identical enrichments; also recorded: no effect
